# Measured values reported in US20060069132A1, “Azolecarboxamide herbicides” (priority 2004, published 2006).
# What was measured:
# [1] = tested on: barnyardgrass; assay: Test B pre-/postemergence herbicide test; format: in vivo, Echinochloa crus-galli; conditions: for Barnyardgrass plant response rating: Postemergence, scale 0 (no effect) to 100 (complete control)
# Procedure, shortened: (§1)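 Response was scored visually 13 to 15 days after treatment against untreated greenhouse controls, 0 meaning no effect and 100 complete control. Formulations (solvent mixture plus surfactant) went onto soil after planting, onto foliage of 1- to 4-leaf plants, and onto 2-leaf plants in a flooded paddy set including rice and barnyardgrass.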
# [2] = tested on: Surinam grass; assay: Test B pre-/postemergence herbicide test; format: in vivo, Urochloa decumbens
# Procedure, shortened: (§2)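 Pre: seeds sown, then sprayed. Post: 1–4-leaf plants (2–18 cm) sprayed at the same time. Paddy: flooded, treated at 2-leaf stage. Formulation: non-phytotoxic solvent with surfactant. Greenhouse 13–15 days; visual 0–100 score relative to controls.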
# [3] = tested on: cocklebur; assay: Test B pre-/postemergence herbicide test; format: in vivo, Xanthium strumarium
# Procedure, shortened: as §1
# [4] = tested on: corn; assay: Test B pre-/postemergence herbicide test; format: in vivo, Zea mays
# Procedure, shortened: as §2
# [5] = tested on: large crabgrass; assay: Test B pre-/postemergence herbicide test; format: in vivo, Digitaria sanguinalis
# Procedure, shortened: as §2
# [6] = tested on: giant foxtail; assay: Test B pre-/postemergence herbicide test; format: in vivo, Setaria faberi
# Procedure, shortened: as §2
# [7] = tested on: lambsquarters; assay: Test B pre-/postemergence herbicide test; format: in vivo, Chenopodium album
# Procedure, shortened: as §2
# [8] = tested on: morningglory; assay: Test B pre-/postemergence herbicide test; format: in vivo, Ipomoea coccinea
# Procedure, shortened: as §1
# [9] = tested on: pigweed; assay: Test B pre-/postemergence herbicide test; format: in vivo, Amaranthus retroflexus
# Procedure, shortened: as §2
# [10] = tested on: velvetleaf; assay: Test B pre-/postemergence herbicide test; format: in vivo, Abutilon theophrasti
# Procedure, shortened: as §2
# [11] = tested on: blackgrass; assay: Test B postemergence herbicide test; format: in vivo, Alopecurus myosuroides
# Procedure, shortened: (§3)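 Visual control ratings, 0–100 versus untreated controls, taken after 13 to 15 days in the greenhouse. Blackgrass received a postemergence spray at the 1- to 4-leaf stage (2–18 cm); ducksalad, umbrella sedge and barnyardgrass were flooded-paddy treated at 2 leaves.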
# [12] = tested on: wheat; assay: Test B postemergence herbicide test; format: in vivo, Triticum aestivum; set-up: key to Wheat plant response rating: 0 = no effect, 100 = complete control
# Procedure, shortened: (§4)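 After treating 2-leaf paddy plants or 2–18 cm postemergence plants (1 to 4 leaves) with formulated chemical, researchers kept them in a greenhouse for 13–15 days. Effects were judged visually versus controls: 0 indicates none, 100 total control.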
# [13] = tested on: wild oat; assay: Test B postemergence herbicide test; format: in vivo, Avena fatua
# Procedure, shortened: as §4
# [14] = tested on: rice; assay: Test B flooded paddy test; format: in vivo, Oryza sativa; conditions: 1000 g ai/ha, scale 0 to 100 (0 no effect, 100 complete control)
# Procedure, shortened: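 Plants grow to 1- to 4-leaf stage (2–18 cm) for postemergence spraying, or to 2-leaf stage for the paddy test. Formulated compound is applied. Greenhouse holding lasts 13–15 days. Response is scored visually relative to controls, 0 no effect to 100 complete control; a dash means no result.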
# [15] = tested on: small flower umbrella sedge; assay: Test B flooded paddy test; format: in vivo, Cyperus difformis; conditions: 1000 g ai/ha, scale 0 to 100 (0 no effect, 100 complete control)
# Procedure, shortened: as §3
# [16] = tested on: ducksalad; assay: Test B flooded paddy test; format: in vivo, Heteranthera limosa; conditions: 1000 g ai/ha, scale 0 to 100 (0 no effect, 100 complete control)
# Procedure, shortened: as §3
# [17] = tested on: barnyardgrass; assay: Test B flooded paddy test; format: in vivo, Echinochloa crus-galli; conditions: 1000 g ai/ha, scale 0 to 100 (0 no effect, 100 complete control)
# Procedure, shortened: as §3
# [18] = tested on: winter barley; assay: Test C postemergence herbicide test; format: in vivo, Hordeum vulgare
# Method: (§5) At the same time, plants selected from these crop and weed species and also winter barley (Hordeum vulgare L.), blackgrass (Alopecurus myosuroides Huds.), canarygrass (Phalaris minor Retz.), chickweed (Stellaria media (L.) Vill.), downy bromegrass (Bromus tectorum L.), green foxtail (Setaria viridis (L.) Beauv.), Italian ryegrass (Lolium multiflorum Lam.), wheat (Triticum aestivum L.), wild oat (Avenafatua L.) and windgrass (Apera spica-venti (L.) Beauv.) were treated with postemergence applications of some of the test chemicals formulated in the same manner. Plants ranged in height from 2 to 18 cm (1- to 4-leaf stage) for postemergence treatments. Plant species in the flooded paddy test consisted of rice (Oryza sativa), smallflower umbrella sedge (Cyperus difformis L.), ducksalad (Heteranthera limosa (Sw.) Willd.) and barnyardgrass (Echinochloa crus-galli (L.) Beauv.) grown to the 2-leaf stage for testing. Treated plants and controls were maintained in a greenhouse for 12 to 14 days, after which time all species were compared to controls and visually evaluated. Plant response ratings, summarized in Table C, are based on a scale of 0 to 100 where 0 is no effect and 100 is complete control. A dash (-) response means no test result.
# [19] = tested on: blackgrass; assay: Test C postemergence herbicide test; format: in vivo, Alopecurus myosuroides
# Method: as §5
# [20] = tested on: canarygrass; assay: Test C postemergence herbicide test; format: in vivo, Phalaris minor
# Method: as §5
# [21] = tested on: downy bromegrass; assay: Test C postemergence herbicide test; format: in vivo, Bromus tectorum
# Method: as §5
# [22] = tested on: green foxtail; assay: Test C postemergence herbicide test; format: in vivo, Setaria viridis
# Method: as §5
# [23] = tested on: Italian ryegrass; assay: Test C postemergence herbicide test; format: in vivo, Lolium multiflorum
# Method: as §5
# [24] = tested on: wheat; assay: Test C postemergence herbicide test; format: in vivo, Triticum aestivum
# Method: as §5
# [25] = tested on: wild oat; assay: Test C postemergence herbicide test; format: in vivo, Avenafatua
# Method: as §5
# [26] = tested on: windgrass; assay: Test C postemergence herbicide test; format: in vivo, Apera spica-venti
# Method: as §5
# [27] = 125 g ai/ha, 0 is no effect, 100 is complete control, preemergence
# [28] = Postemergence, 500 g ai/ha, scale 0 (no effect) to 100 (complete control)
# [29] = postemergence, 125 g ai/ha, scale 0 to 100
# [30] = Postemergence, 500 g ai/ha, scale 0 to 100
# [31] = Postemergence, 250 g ai/ha, scale 0 to 100, 0 no effect, 100 complete control
# [32] = postemergence, 62 g ai/ha, scale 0 to 100
# [33] = Postemergence, 500 g ai/ha, scale 0 to 100, 0 no effect, 100 complete control
structure (smiles),measurement,setting,value
C=CCN(CC=C)C(=O)c1ccc(F)c(NC(=O)c2cc(C(C)(C)C)nn2CC)c1 [Compound 431],"Plant response rating (0 to 100 scale), Barnyardgrass",[1]; [27],10
same,Barnyardgrass plant response rating,[1]; 125 g ai/ha,10
same,Barnyardgrass plant response rating,[1]; 500 g ai/ha,20
same,"Plant response rating (0 to 100 scale), Surinam Grass",[2]; [27],10
same,Surinam Grass plant response rating,[2]; [28],30
same,Surinam Grass plant response rating,[2]; [29],20
same,"Plant response rating (0 to 100 scale), Cocklebur",[3]; [27],0
same,Cocklebur plant response rating,[3]; [28],60
same,Cocklebur plant response rating,[3]; [29],30
same,"Plant response rating (0 to 100 scale), Corn",[4]; [27],0
same,Corn plant response rating,[4]; [28],20
same,Corn plant response rating,[4]; [29],20
same,"Plant response rating (0 to 100 scale), Crabgrass, Large",[5]; [27],60
same,"Crabgrass, Large plant response rating",[5]; [28],30
same,"Crabgrass, Large plant response rating",[5]; [29],20
same,"Plant response rating (0 to 100 scale), Foxtail, Giant",[6]; [27],50
same,"Foxtail, Giant plant response rating",[6]; [28],30
same,"Foxtail, Giant plant response rating",[6]; [29],20
same,"Plant response rating (0 to 100 scale), Lambsquarters",[7]; [27],60
same,Lambsquarters plant response rating,[7]; [28],60
same,Lambsquarters plant response rating,[7]; [29],40
same,"Plant response rating (0 to 100 scale), Morningglory",[8]; [27],0
same,Morningglory plant response rating,[8]; [28],70
same,Morningglory plant response rating,[8]; [29],40
same,"Plant response rating (0 to 100 scale), Pigweed",[9]; [27],40
same,Pigweed plant response rating,[9]; [28],70
same,Pigweed plant response rating,[9]; [29],50
same,"Plant response rating (0 to 100 scale), Velvetleaf",[10]; [27],20
same,Velvetleaf plant response rating,[10]; [28],40
same,Velvetleaf plant response rating,[10]; [29],20
same,Blackgrass plant response rating,[11]; [28],50
same,Blackgrass plant response rating,[11]; [29],30
same,Wheat plant response rating,"[12]; 500 g ai/ha, scale 0 to 100, 0 no effect, 100 complete control, preemergence",10
same,Wheat plant response rating,[12]; [28],30
same,Wheat plant response rating,[12]; [29],30
same,"Oat, Wild plant response rating",[13]; [28],50
same,"Oat, Wild plant response rating",[13]; [29],30
same,Rice plant response rating,[14],30
same,"Sedge, Umbrella plant response rating",[15],80
same,Ducksalad plant response rating,[16],80
same,Barnyardgrass plant response rating,[17],60
same,"Barley, Winter plant response rating",[18]; [30],60
same,"Plant response rating, Barley, Winter",[18]; [31],45
same,"Plant response rating, Barley, Winter","[18]; postemergence, 125 g ai/ha, scale 0 to 100 (0 no effect, 100 complete control)",40
same,"Plant response rating, Barley, Winter","[18]; postemergence, 62 g ai/ha, scale 0 to 100 (0 no effect, 100 complete control)",40
same,Blackgrass plant response rating,[19]; [30],60
same,"Plant response rating, Blackgrass",[19]; [31],60
same,"Plant response rating, Blackgrass",[19]; [29],55
same,"Plant response rating, Blackgrass",[19]; [32],45
same,"Plant response rating, Canarygrass",[20]; [31],60
same,"Plant response rating, Canarygrass",[20]; [33],60
same,"Plant response rating, Canarygrass",[20]; [29],45
same,"Plant response rating, Canarygrass",[20]; [32],40
same,"Plant response rating, Bromegrass, Downy",[21]; [31],55
same,"Plant response rating, Bromegrass, Downy",[21]; [33],60
same,"Plant response rating, Bromegrass, Downy",[21]; [29],45
same,"Plant response rating, Bromegrass, Downy",[21]; [32],40
same,"Plant response rating, Foxtail, Green",[22]; [31],60
same,"Plant response rating, Foxtail, Green",[22]; [33],65
same,"Plant response rating, Foxtail, Green",[22]; [29],60
same,"Plant response rating, Foxtail, Green",[22]; [32],45
same,"Plant response rating, Ryegrass, Italian",[23]; [33],55
same,"Plant response rating, Ryegrass, Italian",[23]; [29],45
same,"Plant response rating, Ryegrass, Italian",[23]; [32],40
same,"Plant response rating, Wheat",[24]; [33],45
same,"Plant response rating, Wheat",[24]; [29],40
same,"Plant response rating, Wheat",[24]; [32],40
same,"Plant response rating, Oat, Wild",[25]; [33],65
same,"Plant response rating, Oat, Wild",[25]; [29],55
same,"Plant response rating, Oat, Wild",[25]; [32],45
same,"Plant response rating, Windgrass",[26]; [33],60
same,"Plant response rating, Windgrass",[26]; [29],40
same,"Plant response rating, Windgrass",[26]; [32],40
